Results taken from patent publication US4053604A (priority 1975, dated 1977).
“And” between values parts separate entries of the source, which are not always exact repeats. Identical values can stand only once.

Assays:
[1] = tail-flick test, potentiation of the analgesic activity of phenoperidine; assay type: in vivo, albino mice
Source text: (§1) In the following experiments, phenoperidine and Compound I are used in the form of their hydrochloride salt and droperidol in the form of its free base in the presence of lactic acid for adjustment to pH to 3.4. Results are expressed on the basis of the form of the drug employed (i.e., free base or hydrochloride salt).
(§2) Results of such tests using albino mice are illustrated by tables 1,2 and 3 in which the neuroleptic agent, droperidol, is included for comparative purposes.
Potentiation of the Analgesic Activity (ED50) of Phenoperidine,
i.e. 0.5 mg/kg, by varying Doses of Neuroleptic Agents.
*PD50 refers to the dose of the neuroleptic which increased the
analgesic activity (ED50) of phenoperidine by 50%.
Modified Analgesic Activity of Phenoperidine in
the Presence of the Neuroleptic PD50. -
*ED50 refers to the analgesic activity of phenoperidine after
pretreatment with a fixed dose (PD50) of the neuroleptic agents.

[2] = tail-flick test, analgesic activity of the agent alone; assay type: in vivo, albino mice; settings: for ED50: Mus musculus, ip, 0.25 h, i.p., dose which increased analgesia by 50% when tested 15 minutes after drug administration
Source text: as §1, §2
*The dose which increased analgesia by 50% when tested 15 minutes after […]

[3] = respiratory minute volume and mean arterial blood pressure in rats; assay type: in vivo
Method: These effects are less than those encountered with neuroleptics presently available for NLA as evidenced by laboratory experiments in rats in which these cardiovascular parameters are measured before and after the administration of Compound 1 and the neuroleptic agent droperidol, see Table 8.
The Effect of Compound 1 and Droperidol on Respiratory Minute Volume
and Mean Arterial Blood Pressure

[4] = induction time of rats exposed to halothane anesthesia (loss of righting reflex); assay type: in vivo, male albino rats (Sprague-Dawley)
Method: (§3) The effects of Compound I on halothane-induced anesthesia were assessed using 20 rats for each dose or time interval determination. The experiments were performed on male albino rats (Sprague-Dawley) weighing from 180-220 g. A schematic representation of the apparatus used is illustrated in FIG. 1. The apparatus consists of a rectangular box made of transparent plastic (115 cm long × 28 cm high × 28 cm wide) which is divided into 4 equal chambers by perforated walls. The box rotates around a hollow axis through which gases can be delivered at several proportions from cylinders, through their respective flowmeters. An in-line halothane vaporizer is placed just before the gases reach the chambers. There is an air-tight door to every chamber through which two animals, one treated and one control, are introduced. The gases are delivered at one end of the box and suction is applied to the other end to take up the gases after flowing through the chambers. An in-line water manometer monitors the resulting pressure. This pressure is kept at 0-5 mm H2 O to make certain the gases in the anesthetic chambers remain at atmospheric pressure. The mixture of gases is delivered at a rate of 15 l/min. The inhalation anesthetic gases are delivered for ten minutes prior to the introduction of the animals into the chambers to assure an even distribution in the four chambers. The chambers rotate at four rev/min forcing the animals to tumble and allowing the experimenter to accurately time the loss and recovery of the righting reflex. Induction times are recorded as the time interval elapsed between the beginning of exposure of the animals to the gases and the moment in which they lose their righting reflex.
(§4) Groups of control animals (four at a time) were subjected to halothane concentrations ranging from 0.5 to 2.5% in a mixture of 95% O2 -5% CO2, and the induction times thus obtained were used to calculate concentration-reponse curves. Since a certain time elapsed between putting the first and the last rat into their respective chambers, each animal was timed separately with a stopwatch. […] This intermediate concentration of halothane was then used to study the effects of increasing doses of the test compound on the induction times and anesthesia times.
(§5) The animals were pretreated by administering the test compounds in dosages ranging from 10 to 500 μg/kg, i.v., at 5, 30, 60, 120, 240 and 360 minutes prior to their exposure to halothane. As soon as all animals lost their righting reflex, the O2 -halothane flow was discontinued and replaced by an equal flow of air. The animals were allowed to remain in the rotating chambers until they regained their righting reflex. Anesthesia times were determined as the interval between the time required to lose and the time to regain the righting reflex. Air flushing of the anesthetic chambers was performed after each determination and the entire procedure repeated with another group of animals for the determination of the effect of a new dose or concentration.
(§6) Drugs used in this study include: droperidol, phenoperidine hydrochloride, halothane and Compound I in the form of its hydrochloride salt. Phenoperidine hydrochloride and Compound I (hydrochloride) were dissolved separately in a warm solution of 0.9% sodium chloride. Droperidol was suspended in saline with the aid of a drop ot Tween 80 (Tween 80 is a registered trademark for a complex mixture of polyoxyethylene ethers of mixed partial oleic esters of sorbitol anhydride). Dosages are expressed in this study as the salt form of the compound where applicable. When the experimental protocol called for the concomitant administration of two drugs, these were mixed in the syringe and administered intravenously. The drugs were injected in a volume of 0.1 ml/100 g body weight.
(§7) The statistical analysis of the data was performed using Student's […]. […]

[5] = behavioral changes and side effects in cebus monkeys; assay type: in vivo; settings: for Behavioral Changes / Side Effects / Duration / Onset / times at which the side effect was observed: Phenoperidine, individual monkey
[6] = anesthesia time of rats exposed to halothane anesthesia (recovery of righting reflex); assay type: in vivo, male albino rats (Sprague-Dawley); settings: phenoperidine hydrochloride 25 μg/kg, i.v.; in words
Method: as §3, §4, §5, §6, §7

SMILES: O=C(CCCN1CC=C(n2c(=O)[nH]c3ccccc32)CC1)c1ccc(F)cc1 [droperidol, reference compound]
- enhancement of analgesic activity of phenoperidine by concomitant administration ([1]; in words): significantly enhanced
- relative potentiating activity, Compound I versus droperidol ([1]; in words): equiactive
- PD50 of Neuroleptic Agent (dose which increased the analgesic activity (ED50) of phenoperidine by 50%) ([1]; mouse, in vivo, ip): 0.55 ± 0.10 mg/kg
- ED50 [2]: > 30 mg/kg
- analgesic activity when given alone ([2]; in words): no analgesic activity could be demonstrated
- Change in Mean B.P. as % of Control ([3]; 25 μg/kg): -28.4 ± 4.6 % of Control
- Change in Minute Volume as % of Control ([3]; 25 μg/kg): +13.9 ± 3.0 % of Control
- Change in Mean B.P. as % of Control ([3]; 100 μg/kg): -15.4 ± 5.9 % of Control
- Change in Minute Volume as % of Control ([3]; 100 μg/kg): +15.6 ± 6.2 % of Control
- Change in Mean B.P. as % of Control ([3]; 250 μg/kg): -26.9 ± 3.2 % of Control
- Change in Minute Volume as % of Control ([3]; 250 μg/kg): +27.3 ± 8.1 % of Control

SMILES: FC(F)(F)C(Cl)Br (centres unmarked) [halothane, reference compound]
- induction time, halothane alone (average) ([4]; control experiments, 1% halothane in 95% O2-5% CO2): 2.4 min

SMILES: CCOC(=O)C1(c2ccccc2)CCN(CCC(O)c2ccccc2)CC1 (centres unmarked) [phenoperidine, 1-(3-hydroxy-3-phenylpropyl)-4-phenylisonipecotic acid ethyl ester, reference compound]
- effect on induction time of rats anesthetized with halothane ([4]; phenoperidine hydrochloride 25 μg/kg, i.v., in words): did not modify
- ED50 [2]: 0.5 ± 0.1 mg/kg
- undesirable side effects ([5]; 50-100 μg/kg, in words): salivation and vomiting were consistently observed
- Behavioral Changes ([5]; 10 μg/kg i.v.): None
- Side Effects ([5]; 10 μg/kg i.v.): None
- Behavioral Changes ([5]; 50 μg/kg i.v.): Sedation and None
- Duration ([5]; 50 μg/kg i.v.): 1 h and > 3 h
- Onset ([5]; 50 μg/kg i.v.): 5 min
- Side Effects ([5]; 50 μg/kg i.v.): Salivation and Vomit and None
- times at which the side effect was observed ([5]; 50 μg/kg i.v.): 15 min and 10 to 15 min
- times at which the side effect was observed ([5]; 100 μg/kg i.v., Vomit): 5 to 25 min and 20 to 45 min
- Behavioral Changes ([5]; 100 μg/kg i.v.): Sedation
- Duration ([5]; 100 μg/kg i.v.): 1 h
- Onset ([5]; 100 μg/kg i.v.): 5 min
- Side Effects ([5]; 100 μg/kg i.v.): Vomit
- doses producing the main beneficial effect (sedation) and undesirable side effects ([5]; phenoperidine i.v.): 0.05 to 0.1 mg/kg
- effect on anesthesia time of rats anesthetized with halothane [6]: did not modify
